Reference: patent publication US20210205292A1, “INHIBITORS OF CREB-CBP INTERACTION FOR TREATMENT OF LEUKEMIA” (The Board of Trustees of the Leland Stanford Junior …, priority 2016, published 2021)

What was measured:
[1] = test system: CREB-bound genes in KG-1 cells; experiment: RNA-Seq of KG-1 cells; assay type: cell-based
Description: For Chip-Seq experiments, KG-1 cells were treated with 5 μM Compound A or DMSO for 6 hours. Cells were cross-linked with 1% formaldehyde at room temperature for 10 min and then incubated with […] for 5 min. After cross-linking, chromatin was digested by Micrococcal nuclease and then sonicated using SimpleChIP® Plus Enzymatic Chromatin IP Kit (Cell Signaling, Danvers, Mass.) following the manufacturer's protocol. Chromatin immunoprecipitations were carried out with anti-CREB antibody (Millipore, Billerica, Mass.) or a control IgG (Santa Cruz Biotechnology). The captured immunocomplexes containing bound transcriptional DNA fragments were eluted, with recovered DNA fragments used for PCR amplification. For RNA-Seq experiments, KG-1 cells were treated with Compound A (5 μM) or 0.1% DMSO for 12 hours. RNA was prepared using the Aurum Total RNA Mini Kit (Bio-Rad). Sample libraries were run using the Illumina sequencing platform. Two hundred million reads were collected on two biological replicates of the experiment. Libraries were prepared using the Illumina Truseq RNA samples prep kit per manufacturer's instructions. Fastq files were aligned using TopHat. Aligned BAM files were used for CuffDiff calculation of differentially expressed genes. CummeRbund R package was used to infer QC of the RNA-seq (GEO Submission GSE74928) [NCBI tracking system #17594369]. ChIP-seq analysis was performed. BETA analysis was used by inferring differentially expressed genes between DMSO and Compound A treated cells based on a fdr≤0.01 and gene distance of 100 kb (Galaxy/cistrome). DNA sequences enriched on ChIP-Seq were defined.
(§1) To determine the functional specificity and downstream effects of Compound A in AML, the CREB transcriptome was first defined in KG-1 cells using CREB chromatin immunoprecipitation followed by high-throughput sequencing (CREB ChIP-Se). […] In this way, the ‘on-target’ effects of Compound A could be assessed.

CREB genomic binding = experiment: CREB ChIP-Seq in KG-1 cells; assay type: cell-based; conditions: 5 μM, 6 hours
Description: For Chip-Seq experiments, KG-1 cells were treated with 5 μM Compound A or DMSO for 6 hours. Cells were cross-linked with 1% formaldehyde at room temperature for 10 min and then incubated with […] for 5 min. After cross-linking, chromatin was digested by Micrococcal nuclease and then sonicated using SimpleChIP® Plus Enzymatic Chromatin IP Kit (Cell Signaling, Danvers, Mass.) following the manufacturer's protocol. Chromatin immunoprecipitations were carried out with anti-CREB antibody (Millipore, Billerica, Mass.) or a control IgG (Santa Cruz Biotechnology). The captured immunocomplexes containing bound transcriptional DNA fragments were eluted, with recovered DNA fragments used for PCR amplification. For RNA-Seq experiments, KG-1 cells were treated with Compound A (5 μM) or 0.1% DMSO for 12 hours. RNA was prepared using the Aurum Total RNA Mini Kit (Bio-Rad). Sample libraries were run using the Illumina sequencing platform. Two hundred million reads were collected on two biological replicates of the experiment. […]
as §1

HL-60 AML cells = experiment: HL-60 AML xenograft in NSG mice; assay type: in vivo; conditions: for GFP+ cells in bone marrow / GFP+ cells in spleen / spleen weight: endpoint
Description: For AML xenograft mouse experiments, HL-60 cells (2×10^6) expressing firefly luciferase and GFP, or cryopreserved human AML patient cells (5×10^6), were injected through the tail vein into NOD.Cg-prkdc^scid Il2rg^tm1WjlSzJ (NSG) mice. Mice were then Compound A or 10% DMSO, injected intravenously by tail vein daily, until death or an endpoint was reached (moribundity) in accordance with the animal care institutional guidelines. All mouse experiments were subject to institutional approval by Stanford University Institutional Animal Care and Use Committee. Leukemia progression in mice at the indicated time points was monitored using an in vivo IVIS 100 bioluminescenceoptical imaging system (Xenogen Corporation). D-Luciferin (Promega) dissolved in sterile phosphate-buffered saline was injected intraperitoneally at a dose of 2.5 mg/kg, 15 minutes before measuring the luminescent signal. General anesthesia was induced with […] and continued during the procedure using a nose cone. Analysis was performed on Living Image In Vivo imaging software (Perkin-Elmer). Imaging was performed in collaboration with the Stanford Small Animal Imaging Facility. Bone marrow was aspirated from bone marrow cavities, and GFP+ cells were sorted using the FACSCalibur flow cytometer (BD Biosciences).
To examine the efficacy of CREB inhibition in an in vivo model of AML, 4-6 week old NOD.Cg-Prkdc^scid Il2rg^tm1WjlSzJ (NSG) mice were tail-vein injected with HL-60 AML cells (2×10^6) expressing Firefly luciferase and GFP. Groups of ten mice received 10% DMSO or 2.3 mg/kg Compound A intravenously (IV) once daily starting the day after cell injection (immediate treatment groups), or one of the same two treatments starting seven days after AML cell injection (delayed treatment groups). This dose of Compound A was selected, as it was the maximum deliverable IV injection concentration and volume in 10% DMSO solution per gram mouse body weight. […] The efficacy of Compound A was also assessed in a mouse xenograft model using primary AML cell sample (patient sample #186), using similar methods.

CREB phosphorylation = CREB phosphorylation in HL-60 cells; assay type: cell-based, human
From the text: FIG. 12, panels A-D, illustrates the results of CyTOF Phenotyping and Compound A Combination Studies. […] Viability for Compound A treatment alone was 87.4±7.3%, versus 55.3±3.4% and 49.5±2.3% when combined with ERK and RSK inhibitors, respectively (* indicates p<0.05 compared to cells treated with Compound A alone). Panel D) Compound A inhibits CREB phosphorylation in the presence of serum. HL-60 cells were serum-starved then stimulated with serum.
Cells were lysed in RIPA buffer (Sigma), and the protein concentrations were determined by BCA assay (Thermo Scientific Pierce). Lysates were solubilized in 6×SDS PAGE buffer and […] of protein was loaded into 6-15% SDS PAGE gels, pheresed, and then transferred onto […] PVDF membrane (Millipore). Primary antibodies were applied at a dilution of 1:1000. Anti-Bcl-2, -Bax, -Mcl-1, -Bcl-XL, -Cyclin A and -Cyclin D1 antibodies were purchased from Cell Signaling Technologies. Anti-total acetylated histone and -ac-H3K27 were purchased from Santa Cruz Biotechnologies. Anti-actin and -CREB antibodies were purchased from upstate. Secondary antibodies were used at a 1:2500 dilution and purchased from Thermo Scientific/Pierce. WesternBright ECL was used for image acquisition on Image Lab software (Bio-Rad).

[2] = test system: Cyclin A1, Cyclin D1, Fra-1, RFC-3; experiment: Expression of CREB-regulated cell cycle genes; assay type: cell-based
Description: Cyclin A1 and D1 expression was decreased following 12 hours of treatment, while Fra-1 and RFC-3 expression decreased following 48 hours of treatment.
Mol Cell Biol. 2004; 24(11):4696-709) (FIG. 6, panel C). […] Levels of RFC-3 also decrease following Compound A treatment (FIG. 6, panel C).

[3] = delayed treatment group (from day 7), 2.3 mg/kg IV once daily
[4] = immediate treatment group, 2.3 mg/kg IV once daily

SMILES: N#Cc1ccc(NC(=O)c2cc3ccccc3cc2O)cc1 [Compound A, N-(4-cyanophenyl)-3-hydroxy-2-naphthamide]
- number of CREB-bound genes with greater than 50% reduced expression ([1]; 5 μM, 12 hours): 602
- number of CREB-bound genes with reduced expression ([1]; 5 μM, 12 hours, of 4680 CREB-bound sites): 2787
- target gene expression of other CBP-binding transcription factors (Rel, RelA, RelB, Foxo3, Foxo1, Myb) ([1]; KG-1 cells, RNA-Seq): no significant change
- CREB genomic binding (CREB genomic binding): did not change
- mean weight of visceral tumors (HL-60 AML cells; Compound A-treated group): 0.027 ± 0.019 g
- mice that developed visible visceral tumors (chloromas) (HL-60 AML cells; Compound A-treated group): 4 of 10
- liver weights (HL-60 AML cells; across groups): no differences in liver weights
- circulating leukemia cells (blood counts and smear) (HL-60 AML cells; at the time of sacrifice): none of the Compound A-treated mice had detectable circulating leukemia cells
- GFP+ cells in bone marrow (HL-60 AML cells; delayed group): 19.9±8.22%
- GFP+ cells in spleen (HL-60 AML cells; delayed group): 4.1±1.44%
- spleen weight (HL-60 AML cells; delayed group): 50.6 ± 9.1 mg
- mean survival (HL-60 AML cells; [3]): 26.4 days
- median survival (HL-60 AML cells; [3]): 24 days
- average radiance (bioluminescence imaging) (HL-60 AML cells; delayed treatment, 2.3 mg/kg IV once daily, day 17): 2.8×10^5 p/sec/cm^2/sr
- GFP+ cells in bone marrow (HL-60 AML cells; immediate group): 9.3±1.28%
- GFP+ cells in spleen (HL-60 AML cells; immediate group): 0.64±0.27%
- spleen weight (HL-60 AML cells; immediate group): 43.3 ± 3.6 mg
- mean survival (HL-60 AML cells; [4]): 31.2 days
- median survival (HL-60 AML cells; [4]): 31 days
- CREB phosphorylation in the presence of serum (CREB phosphorylation; HL-60 cells serum-starved then stimulated with serum, 48 hours): CREB phosphorylation decreases
- CREB phosphorylation (CREB phosphorylation; HL-60 cells, 24 hours): increase in CREB phosphorylation
- Cyclin A1 and D1 expression ([2]; 12 hours of treatment): decreased
- Fra-1 and RFC-3 expression ([2]; 48 hours of treatment): decreased
